Test results: patent US20160199445A1, “USE OF ARPIN A NEW INHIBITOR OF THE ARP2/3 COMPLEX FOR THE DIAGNOSIS AND TREATMENT OF DISEASES” (CENTRE NATIONAL DE LA RECHERCHE SCIENTIFIQUE, priority 2013, published 2016)

Legend:
Arp2/3 complex [1] = assay: Pyrene-actin polymerisation assay (spectrofluorimetry); format: biochemical; conditions: for inhibition of VCA-activated Arp2/3 actin polymerisation: 2 μM actin (10% pyrene-labelled), 500 nM VCA, 20 nM Arp2/3
Experimental: (§1) FIG. 1: Arpin inhibits Arp2/3 activation in vitro. a, Alignment of acidic C-termini of 3 NPFs and of Arpin. […] Pulldown was performed with HeLa cell extract and GST fusions of Arpin full length (FL), Arpin deleted of its last 16 amino-acids (ΔA), the last 16 amino-acids (A) or the VCA domain of N-WASP as a positive control. Arp2/3 binding was assessed by western blot against the ArpC2 subunit. c, Spectrofluorimetry assay to monitor actin polymerisation.
Conditions: 2 μM Actin (10% pyrene-labelled), 20 nM Arp2/3, 500 nM Scar VCA, 5 μM Arpin.
FIG. 8: Determination of apparent Kd from Arpin inhibition of Arp2/3 nucleation. a, Arpin inhibits Arp2/3 activation in the pyrene-actin assay.
(§2) Arp2/3 is displaced from its interaction with 5 μM GST N-WASP VCA immobilized on glutathione beads by the Arpin Acidic peptide (304 μM and serial 2-fold dilutions).
(§3) Pyrene actin assays and monitoring of the branching reaction were performed as described in reference 38 with the conditions described in figure legends. VCA refers to the VCA domain of WAVE1 purified as described^39.

Arp2/3 complex [2] = assay: Competition pulldown: HeLa cell extract and GST N-WASP VCA immobilized on glutathione beads; format: binding; conditions: 5 μM GST N-WASP VCA; Arpin/ArpinΔA 18 μM, ArpinA 304 μM and serial 2-fold dilutions
Experimental: as §1, §2
(§4) 6. GST Pull Down, Immunoprecipitations, SDS-PAGE and Western Blots HeLa cells were lysed in 50 mM Tris-HCl, 150 mM NaCl, 1 mM EDTA, 1 mM DTT, 0.5% Triton-X100, 5% glycerol, pH 7.5. 20 μg of GST fusion protein associated with 20 μl of glutathione sepharose 4B beads (GE […]) were incubated with 1 ml of HeLa cell extracts for 2 h at 4° C. Beads were washed and analysed by western blot.

MDA-MB-231 cells = assay: Electroporation of MDA-MB-231 cells with purified Arpin; analysis of cell migration; format: cell-based, human
From the text: FIG. 27: Electroporation of MDA-MB-231 cells with purified Arpin; analysis of cell migration.
Purified recombinant Arpin can be introduced efficiently into various cell types by electroporation as shown in FIG. 26 with retinal pigment epithelial (RPE-I) cells, mouse embryonic fibroblasts (MEFs) and breast invasive human cell line MDA-MB-231. MDA-MB-231 cells depleted of Arpin migrates faster and more directionally than their respective non-targeting controls (shCtrl).

trout keratocytes = assay: Microinjection of purified protein into migrating fish keratocytes; format: cell-based, brook trout (Salvelinus fontinalis); conditions: injected fish keratocytes; for turning (direction autocorrelation): n≧8, P<0.05 between 16 and 272 s
From the text: FIG. 24: Arpin microinjection induces fish keratocyte to turn. a, Trout keratocytes were micro-injected with purified full length Arpin, ArpinΔA or buffer as control. Upon micro-injection of Arpin, lamellipodia were modified and the cells turned. Scale bar, 20 μm. b, Quantifications of the indicated parameters. Mean±sem; n≧8, * P<0.05, *** P<0.001, ANOVA. c, Kymograph of the Arpin microinjected keratocyte. The leading edge undergoes cycles of protrusions and retractions. d, Model. Directional persistence of migration in this cell system requires a positive feedback loop. Branched actin is sensed and activates Rac as a response. In this context, WAVE closes a positive feedback loop. In contrast, Arpin closes a negative feedback loop. These two nested positive and negative feedback loops can account for the oscillatory behavior of the leading edge observed upon Arpin micro-injection.
FIG. 25: Procedures to quantify fish keratocyte migration. a, Kymograph analysis. Lamellipodial dynamics were studied along a one-pixel-wide line oriented in the direction of protrusions, using the MultiKymograph plug-in in ImageJ. Protrusion velocity was the average of all protrusion slopes at the front of the cell. Projections along the distance axis and the time axis, gave, respectively, length and duration of the protrusion. Cell speed was determined using the slope of the dashed line indicating the rear of the cell. b, Outline analysis. Cell contours were defined using CellTrack software (http://db.cse.ohio-state.edu/CellTrack) and manually adjusted when necessary. The cell from frame t is overlayed with the same cell in frame t+100 s, using their center of mass as a reference. The non-overlapping areas are summed up to give the cell deformation between these two frames. […]
Keratocytes were isolated from scales of freshly killed brook trout (Salvelinus fontinalis) as previously described^41 and imaged by phase contrast on an inverted Zeiss Axioscope using ×63 optics, and a halogen lamp as light source. […] Contours were analysed using the CellTrack software (OHIO STATE UNIVERSITY). […]

Arp2/3 complex [3] = assay: GST fusion pulldown of Arp2/3 from HeLa cell extract (western blot against ArpC2); format: binding; conditions: GST fusions
Experimental: as §1, §4

Arp2/3 complex [4] = assay: Fluorescence anisotropy based determination of Kd (labelled ArpinA peptide, purified Arp2/3 complex); format: binding; conditions: for displacement of labelled ArpinA peptide bound to the Arp2/3 complex: titration of labelled ArpinA peptide/Arp2/3 complex with purified protein
Experimental: FIG. 5: Arpin directly binds to the Arp2/3 complex with a dissociation constant of 200 nM. a, Fluorescence anisotropy measurements of labelled ArpinA peptide binding at equilibrium to the purified Arp2/3 complex at the indicated concentrations. b, Labelled ArpinA peptide bound to the Arp2/3 complex was then titrated with purified Arpin FL, ArpinΔA or unlabelled ArpinA peptide as indicated. […] Curves that best fit the values yield the indicated equilibrium constants.
The ArpinA peptide was synthesized and labelled with 5-TAMRA at the N-terminus (PROTEOGENIX). The peptide was excited with polarised light at 549 nm and emitted light was detected at 573 nm using a MOS450 fluorimeter (BIOLOGIC). Measurements were made for 60 s at 1 point/s and the average anisotropy was calculated with the Biologic software. Fits were performed as described in reference 40.

Arp2/3 complex [5] = assay: Assembly of branched actin networks monitored by TIRF microscopy; format: biochemical; conditions: 1 μM actin, 150 nM VCA, 80 nM Arp2/3, Arpin at 5 μM; 5, 10, 15 and 20 min
Experimental: as §1
FIG. 10: Quantification of Arpin inhibition on the generation of branched actin networks. Conditions as in FIG. 1d. Images were extracted from the TIRF movies, 5, 10, 15 and 20 min after initiation of the reaction. The number of branches and filaments were counted and the ratio determined.
as §3

prechordal plate cells = assay: Prechordal plate cell migration and protrusions in morpholino-injected zebrafish embryos; format: in vivo
From the text: FIG. 17: Arpin regulates protrusion frequency of prechordal plate cells and their collective migration in zebrafish embryos. a, In situ hybridisation of arpin probe in zebrafish embryos at different stages. arpin mRNAs are maternally deposited. During gastrulation, arpin is expressed in hypoblast, which includes the prechordal plate. b, 3D trajectories of prechordal plate cells in embryos injected with control or arpin morpholino. During fish gastrulation, prechordal plate cells migrate collectively in a straight direction from the margin of the embryo towards the animal pole^32,33. […] Lateral displacement is the cell movement perpendicular to main direction of the migration. Distance between cells refers to the average distance of the nucleus of a given cell to the nuclei of its 5 closest neighbors. Mean±sem; n≧1469; *** P<0.001, t-test. c, At the onset of gastrulation prechordal plate cells derived from morpholino injected embryos were transplanted into the prechordal plate of an untreated host embryo at the same stage in order to allow imaging of cell autonomous effects on protrusion formation. Donor embryos are injected with control or arpin morpholinos and mRNAs encoding Lifeact-mCherry as well as GFP-Arpin for the rescue. Time lapse imaging of injected cells is performed by epifluorescence to reveal Lifeact a marker of filamentous actin, which stains actin-based protrusions. […]

| Substance | effect on spontaneous actin nucleation and activation of the Arp2/3 complex (Arp2/3 complex [1]; 2 μM Actin (10% pyrene-labelled), 20 nM Arp2/3, 500 nM Scar VCA, 5 μM Arpin) | inhibition of VCA-activated Arp2/3 actin polymerisation (Arp2/3 complex [1]) | Kd (Arp2/3 complex [1]; in a mixture including actin and the VCA, best fit of number of actin barbed ends, read-out: apparent Kd for the Arp2/3 complex from inhibition of Arp2/3 nucleation) [µM] | competition with the NPF (VCA) for Arp2/3 binding (Arp2/3 complex [2]) | speed and persistence of migration (MDA-MB-231 cells; Arpin-depleted MDA-MB-231 cells electroporated with purified Arpin) | idling (active movement) (MDA-MB-231 cells; MDA-MB-231 cells electroporated with Arpin protein) | territory explored (Mean Square Displacement) (trout keratocytes; n≧8, P<0.001) | turning (direction autocorrelation) (trout keratocytes) | Arp2/3 binding in pulldown (Arp2/3 complex [3]) | Kd (Arp2/3 complex [4]; fluorescence anisotropy, purified Arp2/3 complex, read-out: dissociation constant for binding to the Arp2/3 complex) [µM] | displacement of labelled ArpinA peptide bound to the Arp2/3 complex (Arp2/3 complex [4]) | frequency of branches in actin networks (ratio branches/filaments) (Arp2/3 complex [5]) | inhibition of VCA-activated Arp2/3 actin polymerisation (Arp2/3 complex [1]; listed as Acidic peptide) | dispersion of prechordal plate cells (lateral displacement, distance between cells) (prechordal plate cells; embryos injected with control or arpin morpholino, n≧1469, P<0.001) | probability of presence of protrusions and their duration (prechordal plate cells; transplanted prechordal plate cells from morpholino injected embryos, P<0.05) |
| --- | --- | --- | --- | --- | --- | --- | --- | --- | --- | --- | --- | --- | --- | --- | --- |
| Arpin: protein of SEQ ID NO: 1, product of human C15orf38 gene (residues 1-226); new inhibitor of the Arp2/3 complex | does not affect spontaneous actin nucleation and does not activate the Arp2/3 complex | inhibited actin polymerisation in a dose-dependent manner | 0.76 ± 0.156 | Arp2/3 is displaced from its interaction with the VCA | speed and persistence decreased | more idling (less active movement) | explore a smaller territory than the controls | turn more than wild type | binds to the Arp2/3 complex through its acidic C-terminal region | 0.2 | displaces the labelled ArpinA peptide more efficiently than the A peptide | decreases the frequency of branches in actin networks | – | – | – |
| ArpinA: ArpinA peptide, residues 211-226 of full length Arpin (last 16 amino-acids, EIREQGDGAEDEEWDD) | – | inhibits Arp2/3 activation in a dose dependent manner | – | competes with the NPF for Arp2/3 binding | – | – | – | – | – | – | – | – | sufficient for this inhibition, although it was less effective than full length Arpin | – | – |
| ArpinΔA: Arpin deleted of its last 16 amino-acids (residues 1-210); human or zebrafish recombinant | – | not | – | not | – | – | – | turn more than wild type but less than wild type Arpin injected keratocytes | – | – | unable to displace the ArpinA peptide | – | – | – | – |
| GTTGTCATAAATACGACTCATCTTC (all phosphorodiamidate morpholino (PMO)) [arpin morpholino] | – | – | – | – | – | – | – | – | – | – | – | – | – | induces dispersion as evidenced by increased lateral cell displacement and a higher distance between cells | increases the probability of presence of protrusions |
